This is an account of results in patent publication US20250099407A1, “2-AMINO BENZOPHENONE DERIVATIVES FOR TARGETED FERROPTOSIS INDUCTION IN CANCER THERAPY” (INDIAN INSTITUTE OF TECHNOLOGY KANPUR, priority 2023, published 2025).

Holding throughout (format): cell-based
For test [1], the system named is cancer cells. The test is described as follows: Antiproliferative potency against cancer cells / panel of cancer cell lines. How it is done: (§1) The viability of screened cancer cells was recorded using a luminescence-based CellTiter-Glo® assay for the ATP quantification. The screening concentration of the molecule ranged from 100/10 μM to 45/4.5 nM with an 8-point-3-fold dilution series in DMEM media (>0.1% DMSO as control). Each experiment was conducted in more than two biological replicates with three technical replicates. The error bar is a representation of standard deviation among the technical replicates.
(§2) The viability of screened cancer cells was recorded using a luminescence-based CellTiter-Glo® assay for the ATP quantification. The screening concentration of IITK3002 ranged from 10 μM to 4.5 nM with an 8-point-3-fold dilution series in DMEM media (>0.1% DMSO as control). Each experiment was conducted in more than two biological replicates with three technical replicates. The error bar is a representation of standard deviation among the technical replicates.
a. […] In parallel, we have also synthesized the bromoacetamide (IITK3002) version of the lead molecules which is slightly more reactive with thiol nucleophiles when compared to chlorooacetamide warheads as depicted in FIG. 13. […] In addition, we also evaluated the molecules' antiproliferative potency against a panel of twelve different cancer phenotypes. The set of cancer cell lines included liver, breast, colon, myeloma, bone, blood, skin, brain and prostate lineages (FIG. 2, 3, Table 1).

Test [2] relates to MCF7. As to the kind of experiment: Cell viability, CellTiter-Glo assay, MCF7. The following applies: Homo sapiens. On the procedure:
as §1, §2
(§3) a. […] In parallel, we have also synthesized the bromoacetamide (IITK3002) version of the lead molecules which is slightly more reactive with thiol nucleophiles when compared to chlorooacetamide warheads as depicted in FIG. 13. […] In addition, we also evaluated the molecules' antiproliferative potency against a panel of twelve different cancer phenotypes. […]
On the technique in general: ATP-based viability assays read luminescence as a measure of living cells.

In test [3] the test system is U87MG. The test is described as follows: Cell viability, CellTiter-Glo assay, U87MG. The following applies: Homo sapiens, U-87 MG. How it is done:
as §1, §2, §3

Test [4] deals with 4T1. The test is described as follows: Cell viability, CellTiter-Glo assay, 4T1. As to conditions: Mus musculus; 4T1, cell viability. How it is done:
as §1, §2, §3

Test [5] deals with RPMI 8226. The test is described as follows: Cell viability, CellTiter-Glo assay, RPMI 8226. As to conditions: Homo sapiens; RPMI 8226, cell viability. How it is done:
as §1, §2, §3

For test [6], the system named is HCT116. The test is described as follows: Cell viability, CellTiter-Glo assay, HCT116. The following applies: Homo sapiens, HCT-116. On the procedure:
as §1, §2, §3

Test [7] concerns Jurkat J6. The test is described as follows: Cell viability, CellTiter-Glo assay, Jurkat J6. The following applies: Homo sapiens. How it is done:
as §1, §2, §3

The subject of test [8] is Huh-7 cells. The test is described as follows: Intracellular ROS, H2-DCFDA oxidation assay in Huh-7 cells. The following applies: Huh-7, 37° C., 30 min; IITK3001 and IITK3002 20 μM, H2O2 100 μM. How it is done: We used fluorescence imaging-based oxidation of H2-DCFDA by ROS for assessing intracellular oxidative stress. Huh-7 cells were treated at 37° C. for 30 min with IITK3001 and IITK3002 (20 μM), H2O2 (100 μM), ^tertBuOOH (20 μM), NAC (0.5 mM) and 0.1% DMSO as control. Each experiment was conducted in more than two biological replicates with three technical replicates.
b. Effect of Thiols and Ferroptosis Modulators on the Hit Molecules' Antiproliferative Potency: Ferroptosis is directly controlled by the intracellular thiol concentrations in the form of cysteine and glutathione. Several oxidative mechanisms are well-wired in ferroptotic cell death and we set out to investigate the precise molecular mechanism of our lead molecules. Both cysteine and glutathione (GSH) are the enriched thiol-containing small molecule antioxidant system that are essential regulators of redox modulation in cells including ferroptosis. Further, the enzyme glutathione peroxidase 4 (GPX4) is well characterized to specifically quench the lipid peroxide equivalents in cells through the conversion of […] in cells thereby restoring the reduced environment in cells. Therefore, first, we assessed the ability of N-acetylcysteine (NAC) and GSH to suppress our lead molecules antiproliferative activity (FIG. 4a, b). We found a drastic reduction in the molecules' potency with IITK3001 (>1000-fold reduction) and IITK3002 (>500-fold reduction) (FIG. 14a, b). Supporting that, the addition of DL-Buthionine sulfoximine (BSO), an inhibitor of y-glutamylcysteine synthetase (glutathione biosynthesis) combination with our lead molecules potentiated the overall inhibitory capacity (FIG. 14a, b). […] Finally, we assessed the effect of Ferrostain-1 (Fer-1) and Liproxstatin-1 (Lip-1), antioxidants that function by trapping reactive radicals in cells, particularly lipid-peroxide radicals, and preventing the accumulation of lipid peroxides in cells. […] The accumulation of lipid peroxides and overall ROS was also detected using a fluorescence-based H2DCF-DA assay as depicted in FIG. 15. […]

The subject of test [9] is MDA-MB-231. The test is described as follows: Cell viability, CellTiter-Glo assay, MDA-MB-231. The following applies: Homo sapiens; MDA-MB-231, cell viability. How it is done: as §1, §2, §3
Where [10] appears, read: cell line not stated, read-out: EC50, inhibition of cancer cell proliferation.
Where [11] appears, read: range over twelve different cancer phenotypes, read-out: EC50 concentration range across panel of twelve cancer cell lines.

Like-named read-outs stand apart in the source and are kept apart here.

On to `CN(C(=O)CCl)c1ccccc1C(=O)c1ccccc1` [IITK3001, N-(2-benzoylphenyl)-2-chloro-N-methylacetamide], for which the EC50 in test [1] (setting [10]) is 70 nM; in test [1] (setting [11]) it was 132 to 490 nM; in test [2], 312 nM; in [3], 402 nM; in [4] it was 499 nM; in [5] it was 133 nM. Also, the EC50 in test [6] worked out at 168 nM; in test [7], 222 nM; in test [9], 184 nM. In addition, the “intracellular ROS, H2DCF-DA fluorescence intensity” value in test [8] was “intracellular ROS generation”.
As for `CN(C(=O)CBr)c1ccccc1C(=O)c1ccccc1` [IITK3002, N-(2-benzoylphenyl)-2-bromo-N-methylacetamide], the EC50 in test [1] (setting [10]) is 3 nM; in test [1] (setting [11]), 20 to 132 nM; in [2] it was 20 nM; in test [3] it was 80 nM; in [4] it was 66 nM; in test [5], 39 nM. The results for the EC50 in [6], in test [7] and in test [9] were 37 nM, 37 nM and 26 nM, respectively. For the same molecule, the “intracellular ROS, H2DCF-DA fluorescence intensity” value in test [8] is reported as “intracellular ROS generation”.
